# Source: paper PMC6270011, “Design and Synthesis of Arylthiophene-2-Carbaldehydes via Suzuki-Miyaura Reactions and Their Biological Evaluation” (Molecules, 2013)
# Like-named read-outs stand apart in the source and are kept apart here.
# Experiments:
# [1] = Nitric oxide (NO) scavenging assay; assay type: biochemical
# From the text: Nitric oxide (NO) is a free radical causing inflammatory disorders and cancer in the human body when sodium nitroprusside decomposes to produce nitric oxide. The antioxidant activity of various thiophene derivatives has been reported in the literature and it has also been observed that compounds with high antioxidant activity served as antitumor agents. The newly synthesized compounds reacted directly with nitric oxide and inhibited nitrite formation in an excellent way.
# The reaction mixtures comprising sample solution (2 µL), phosphate buffer (17 µL) and sodium nitroprusside (20 µL) were incubated at 37 °C for 2 h in well plates. Then Griess reagent (20 µL, 0.3% sulphanilic acid in glacial acetic acid + 0.1% naphthylethylenediamine (NED): equal volumes of both solutions mixed just before use) was added to each well plate and the mixture kept at room temperature for 20 min to develop the color. The absorbance was measured at 528 nm by using an ELISA reader. The results were processed using Gen 5 software. All the reactions were performed in triplicate. Positive control (containing known antioxidant) and control (containing all samples) were run in parallel. Negative control was used to calibrate the instrument. The % age antioxidant activity was determined by using the following formula: % antioxidant activity = [(Absorbance of control − absorbance of sample)/(Absorbance of control)] × 100
# [2] = system: human red blood cells (erythrocytes); assay type: cell-based; details: human erythrocytes, 37 °C, 35 min
# Protocol: Three mL of freshly obtained human blood was placed in heparinized tubes to avoid coagulation, gently mixed and poured into a sterile 15 mL Falcon tube and centrifuged for 5 min at 1,000 ×g. The supernatant was discarded and red blood cells were washed three times with chilled (4 °C) sterile isotonic phosphate buffer saline pH 7.4 (5 mL). Erythrocytes (10^8 cells/mL) were maintained for each assay by dilution with phosphate buffer saline. Erythrocytes were counted on a heamacytometer. Twenty µL of each compound was mixed with red blood cells suspension (180 μL) separately. The samples were incubated at 37 °C for 35 min. The samples were placed on ice for 5 min and then agitated at 1,000 ×g for 5 min. Supernatant (100 µL) were taken from each tube and diluted 10 times with chilled (4 °C) phosphate buffered saline. Triton X-100 (0.1% v/v) was taken as a positive control and PBS was negative control and then subjected to the same process. […] The percentage RBSs lyses for each sample was calculated.
# Gram-negative bacteria = assay: Antibacterial activity against Gram-negative bacteria (strain not named); assay type: cell-based
# Escherichia coli = assay: Antibacterial activity (disc / inhibition zone) against Escherichia coli; details: for zone of inhibition at 25 µg/mL / zone of inhibition at 50 µg/mL: read-out: Inhibition zone, E.coli
# Salmonella typhi = assay: Antibacterial activity (disc / inhibition zone) against Salmonella typhi; details: Salmonella enterica; for zone of inhibition at 25 µg/mL / zone of inhibition at 50 µg/mL: read-out: Inhibition zone, S. typhi
# Bacillus subtilis = assay: Antibacterial activity (disc / inhibition zone) against Bacillus subtilis; details: read-out: Inhibition zone, B. subtilis
# Shigella dysenteriae = assay: Antibacterial activity (disc / inhibition zone) against Shigella dysenteriae; details: read-out: Inhibition zone, S. dysenteriae
# Staphylococcus aureus = assay: Antibacterial activity (disc / inhibition zone) against Staphylococcus aureus; details: for zone of inhibition at 25 µg/mL / zone of inhibition at 50 µg/mL: read-out: Inhibition zone, S. aureus
# Pseudomonas aeruginosa = assay: Antibacterial activity (disc / inhibition zone) against Pseudomonas aeruginosa; details: read-out: Inhibition zone, P. aeruginosa
# urease enzyme = urease enzyme (Canavalia ensiformis, UniProt P07374)
# [3] = 25 µg/mL, read-out: % Activity at 25 µg (NO scavenging)
# [4] = 50 µg/mL, read-out: % Activity at 50 µg (NO scavenging)
# [5] = 100 µg/mL, read-out: % Activity at 100 µg (NO scavenging)
# urease enzyme, sequence (P07374 whole entry, looked up): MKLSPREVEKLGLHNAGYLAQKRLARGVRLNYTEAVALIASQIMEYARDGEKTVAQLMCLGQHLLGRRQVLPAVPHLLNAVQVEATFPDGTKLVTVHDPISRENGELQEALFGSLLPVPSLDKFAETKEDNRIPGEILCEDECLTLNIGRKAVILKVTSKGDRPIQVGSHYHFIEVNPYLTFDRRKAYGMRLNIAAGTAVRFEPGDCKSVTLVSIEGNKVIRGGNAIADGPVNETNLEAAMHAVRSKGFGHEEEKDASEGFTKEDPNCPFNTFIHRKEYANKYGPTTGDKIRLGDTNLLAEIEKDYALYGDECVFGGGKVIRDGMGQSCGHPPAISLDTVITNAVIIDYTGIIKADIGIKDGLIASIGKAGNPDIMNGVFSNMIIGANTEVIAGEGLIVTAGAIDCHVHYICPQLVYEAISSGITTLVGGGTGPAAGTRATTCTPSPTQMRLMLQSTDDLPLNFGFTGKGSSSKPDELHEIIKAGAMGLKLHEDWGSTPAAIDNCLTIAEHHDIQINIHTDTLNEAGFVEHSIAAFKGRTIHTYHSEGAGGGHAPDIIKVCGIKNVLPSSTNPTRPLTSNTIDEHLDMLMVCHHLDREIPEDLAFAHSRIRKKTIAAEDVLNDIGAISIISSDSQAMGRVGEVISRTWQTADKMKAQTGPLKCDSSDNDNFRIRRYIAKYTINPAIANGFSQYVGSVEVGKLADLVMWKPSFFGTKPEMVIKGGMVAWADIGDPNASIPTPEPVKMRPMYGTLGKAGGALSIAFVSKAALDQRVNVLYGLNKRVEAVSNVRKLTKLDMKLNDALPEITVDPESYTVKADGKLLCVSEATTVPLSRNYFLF
Compound,"inhibition [1, 3] [%]","inhibition [1, 4] [%]","inhibition [1, 5] [%]","Haemolytic activity, percentage of lysis (Average ± SD) [2] [%]",melting point [°C],zone of inhibition at 25 µg/mL (Escherichia coli) [mm],zone of inhibition at 50 µg/mL (Escherichia coli) [mm],zone of inhibition at 25 µg/mL (Salmonella typhi) [mm],zone of inhibition at 50 µg/mL (Salmonella typhi) [mm],zone of inhibition at 25 µg/mL (Bacillus subtilis) [mm],zone of inhibition at 50 µg/mL (Bacillus subtilis) [mm],zone of inhibition at 25 µg/mL (Shigella dysenteriae) [mm],zone of inhibition at 50 µg/mL (Shigella dysenteriae) [mm],zone of inhibition at 25 µg/mL (Staphylococcus aureus) [mm],zone of inhibition at 50 µg/mL (Staphylococcus aureus) [mm],zone of inhibition at 25 µg/mL (Pseudomonas aeruginosa) [mm],zone of inhibition at 50 µg/mL (Pseudomonas aeruginosa) [mm],also measured
"Cc1cc(C)cc(-c2csc(C=O)c2)c1 [2g, 4-(3,5-Dimethylphenyl)thiophene-2-carbaldehyde]",13 ± 0.002,28 ± 0.007,43 ± 0.002,4.525 ± 0.075,71 to 73,22.5 ± 0.11,44.5 ± 0.19,32.2 ± 0.11,61 ± 0.16,36 ± 0.08,56 ± 0.24,32 ± 0.01,59 ± 0.44,27 ± 0.08,59 ± 0.44,25 ± 0.06,56 ± 0.04,IC50 (Gram-negative bacteria): 45.2 µg/mL
"Cc1ccc(-c2csc(C=O)c2)s1 [2j, 5-Methyl-2,3-bisthiophene-5-carbaldehyde]",15 ± 0.021,50 ± 0.024,65 ± 0.013,4.135 ± 0.095,218 to 220,26 ± 0.03,66 ± 0.43,29 ± 0.1,63 ± 0.1,27.1 ± 0.01,60 ± 0.05,35 ± 0.2,65 ± 0.09,35.2 ± 0.01,65 ± 0.09,36 ± 0.16,69 ± 0.16,IC50 (NO scavenging) [1]: 49.3 µg/mL; IC50 (Escherichia coli; read-out: IC50 against Escherichia coli): 40 µg/mL; IC50 (Salmonella typhi; read-out: IC50 against Salmonella typhi): 37.4 µg/mL; IC50 (Staphylococcus aureus; read-out: IC50 against Staphylococcus aureus): 37.4 µg/mL
"NC(N)=S [Thiourea, thiourea, reference compound]",,,,,,,,,,,,,,,,,,IC50 (urease inhibition) (urease enzyme): 27.5 µg/mL; %age Activity at 25 μg (urease inhibition) (urease enzyme; 25 µg/mL): 47 ± 0.007%; %age Activity at 50 μg (urease inhibition) (urease enzyme; 50 µg/mL): 77 ± 0.015%
